From US20210221785A1, “AMINO-PYRIMIDONYL DERIVATIVES, A PROCESS FOR THEIR PREPARATION AND PHARMACEUTICAL COMPOSITIONS CONTAINING THEM” (LES LABORATOIRES SERVIER, priority 2018, published 2021)

Target: T1, His-His-USP7 (aa208-560, |C315A|) (Homo sapiens, UniProt Q93009, C315A)
T1 construct: His-His-USP7 (aa208-560, |C315A|); His-His (N)
Experiment: Evaluation of the inhibition of USP7 by the Fluorescence Intensity (FLINT) readings
Assay type: biochemical
Conditions: 0.25 nM His-His-USP7, compound incubated 60 minutes at 30° C., 500 nM Ubiquitin-Rhodamine-110 substrate; 50% reduction in kinetic rate
Experimental: USP7 activity was measured using Rhodamine-110 c-terminal labelled Ubiquitin as a substrate (UbiQ Bio). Incubation with USP7 results in the release of Rhodamine-110 leading to an increase in fluorescence which can be used in the continuous measurement of USP7 activity.
The USP7 reactions were performed in a 50 μL volume, in 384 well black solid low binding plates (Corning #3575). The reaction buffer consisted of 100 mM Bicine pH 8.0, 0.01% TritonX100, 1 mM TCEP, and 10% DMSO.
0.25 nM His-His-USP7 (aa208-560, |C315A|) was incubated with compound (final concentration 10% DMSO) for 60 minutes at 30° C. The reaction was then initiated by the addition of 500 nM Ubiquitin-Rhodamme-110 substrate and the plate read every 3 minutes for 21 minutes to measure the release of Rhodamine-110. Fluorescence Intensity (FLINT) readings were measured using a […] plate reader (Ex.485 nm, Em.535 nm).
The inhibition of increasing doses of compound was expressed as a percentage reduction in kinetic rate compared to the kinetic rates established between ‘DMSO only’ and ‘total inhibition’ controls (no USP7). The inhibitory concentrations that gave a 50% reduction in kinetic rate (IC50) were determined, from 11-point dose response cures, in XL-Fit using a 4-Parameter Logistic Model 205 (Sigmoidal Dose-Response Model).

T1 sequence (Q93009 208-560 C315A): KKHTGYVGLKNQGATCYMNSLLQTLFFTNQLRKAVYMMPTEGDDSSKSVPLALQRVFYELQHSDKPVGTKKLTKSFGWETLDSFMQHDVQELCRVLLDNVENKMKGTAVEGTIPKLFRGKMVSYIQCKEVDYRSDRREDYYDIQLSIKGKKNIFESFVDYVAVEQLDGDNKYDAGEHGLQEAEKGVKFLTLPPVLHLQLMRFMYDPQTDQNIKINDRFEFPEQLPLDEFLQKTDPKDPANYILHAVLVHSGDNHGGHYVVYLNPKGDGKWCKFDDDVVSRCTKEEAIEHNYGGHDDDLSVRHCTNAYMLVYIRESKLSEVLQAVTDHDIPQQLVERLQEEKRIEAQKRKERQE

| SMILES | IC50 [nM] |
| --- | --- |
| NC(=O)c1ccc(Oc2ncn(CC3(O)CCN(C(=O)[C@@H]4CCC(F)(F)C[C@H]4c4ccccc4)CC3)c(=O)c2N)cc1 [Example 58, 4-{[5-amino-1-({1-[(1R,2R)-4,4-difluoro-2-phenylcyclohexane-1-carbonyl]-4-hydroxypiperidin-4-yl}methyl)-6-oxo-1,6-dihydropyrimidin-4-yl]oxy}benzamide] | 67 |
| Nc1c(Oc2ccc(F)cc2)ncn(CC2(O)CCN(C(=O)[C@@H]3CC[C@](O)(Cc4cnccn4)C[C@H]3c3ccccc3)CC2)c1=O (relative stereo) [Example 98, rel-5-amino-6-(4-fluorophenoxy)-3-[(4-hydroxy-1-{([(1R,2R,4R)-4-hydroxy-2-phenyl-4-(pyrazin-2-ylmethyl)cyclohexyl]carbonyl}piperidin-4-yl)methyl]pyrimidin-4-one] | 223 |
| Nc1c(Oc2ccc(CN3CCOCC3)cc2)ncn(CC2(O)CCN(C(=O)[C@@H]3CCC(F)(F)C[C@H]3c3ccccc3)CC2)c1=O [Example 113, 5-amino-3-({1-[(1R,2R)-4,4-difluoro-2-phenylcyclohexane-1-carbonyl]-4-hydroxypiperidin-4-yl}methyl)-6-{4-[(morpholin-4-yl)methyl]phenoxyl}pyrimidin-4(3H)-one] | 140 |
| CNCc1ccc(Oc2ncn(CC3(O)CCN(C(=O)[C@@H]4CCC(F)(F)C[C@H]4c4ccccc4)CC3)c(=O)c2N)cc1 [Example 60, 5-amino-3-({1-((1R,2R)-4,4-difluoro-2-phenylcyclohexane-1-carbony]-4-hydroxypiperidin-4-yl}methyl)-6-{4-[(methylamino)methyl]phenoxy}pyrimidin-4(3H)-one] | 6.5 |
| N#Cc1cccc(Oc2ncn(CC3(O)CCN(C(=O)[C@@H]4CCC(F)(F)C[C@H]4c4ccccc4)CC3)c(=O)c2N)c1 [Example 25, 3-{[5-amino-1-({1-[(1R,2R)-4,4-difluoro-2-phenylcyclohexane-1-carbonyl]-4-hydroxypiperidin-4-yl}methyl)-6-oxo-1,6-dihydropyrimidin-4-yl]oxy}benzonitrile] | 203 |
| Nc1c(Oc2cccc(S(F)(F)(F)(F)F)c2)ncn(CC2(O)CCN(C(=O)[C@@H]3CCC(F)(F)C[C@H]3c3ccccc3)CC2)c1=O [Example 21, 5-amino-3-({1-[(1R,2R)-4,4-difluoro-2-phenylcyclohexane-1-carbonyl]-4-hydroxypiperidin-4-yl}methyl)-6-[3-(pentafluoro-λ^6-sulfanyl)phenoxy]pyrimidin-4(3H)-one] | 716 |
| CC(C)(O)c1cccc(Oc2ncn(CC3(O)CCN(C(=O)[C@@H]4CCC(F)(F)C[C@H]4c4ccccc4)CC3)c(=O)c2N)c1 [Example 49, 5-amino-3-({1-[(1R,2R)-4,4-difluoro-2-phenylcyclohexane-1-carbonyl]-4-hydroxypiperidin-4-yl}methyl)-6-[3-(2-hydroxypropan-2yl)phenoxy]pyrimidin-4(3H)-one] | 138 |
| Nc1c(Oc2cccc(C(=O)O)c2)ncn(CC2(O)CCN(C(=O)[C@@H]3CCC(F)(F)C[C@H]3c3ccccc3)CC2)c1=O [Example 63] | 1620 |
| NC(=O)c1cccc(Oc2ncn(CC3(O)CCN(C(=O)[C@@H]4CCC(F)(F)C[C@H]4c4ccccc4)CC3)c(=O)c2N)c1 [Example 62, 3-{[5-amino-1-([1-[(1R,2R)-4,4-difluoro-2-phenylcyclohexane-1-carbonyl]-4-hydroxypiperidin-4-yl]methyl)-6-oxy-1,6-dihydropyrimidin-4-yl]oxy}benzamide] | 100 |
| Nc1c(Oc2ccc(F)cc2)ncn(CC2(O)CCN(C(=O)[C@@H]3CC[C@@](F)(C#Cc4cc(F)ccn4)C[C@H]3c3ccccc3)CC2)c1=O [Example 158, 5-amino-3-({1-[(1R,2R,4S)-4-fluoro-4-[2-(4-fluoropyridin-2-yl)ethynyl]-2-phenylcyclohexanecarbonyl]-4-hydroxypiperidin-4-yl}methyl)-6-(4-fluorophenoxy)-3,4-dihydropyrimidin-4-one] | 67.7 |
| Nc1c(Oc2cccnc2)ncn(CC2(O)CCN(C(=O)C3CCC(F)(F)CC3c3ccccc3)CC2)c1=O (stereo not drawn) [Example 84, 5-amino-3-({1-[(1,2-trans)-4,4-difluoro-2-phenylcyclohexane-1-carbonyl]-4-hydroxypiperidin-4-yl}methyl)-6-[(pyridin-3-yl)oxy]pyrimidin-4(3H)-one] | 212 |
| COc1cccc(Oc2ncn(CC3(O)CCN(C(=O)[C@@H]4CCC(F)(F)C[C@H]4c4ccccc4)CC3)c(=O)c2N)c1 [Example 4, 5-amino-3-({1-[(1R,2R)-4,4-difluoro-2-phenylcyclohexane-1-carbonyl]-4-hydroxypiperidin-4-yl}methyl)-6-(3-methoxyphenoxy)pyrimidin-4(3H)-one] | 93.8 |
| Nc1c(Oc2cccc(OC(F)(F)F)c2)ncn(CC2(O)CCN(C(=O)[C@@H]3CCC(F)(F)C[C@H]3c3ccccc3)CC2)c1=O [Example 18, 5-amino-3-({1-[(1R,2R)-4,4-difluoro-2-phenylcyclohexane-1-carbonyl]-4-hydroxypiperidin-4-yl}methyl)-6-[3-(trifluoromethoxy)phenoxy]pyrimidin-4(3H)-one] | 247 |
| Nc1c(Oc2cnc3cc[nH]c3c2)ncn(CC2(O)CCN(C(=O)[C@@H]3CCC(F)(F)C[C@H]3c3ccccc3)CC2)c1=O [Example 106, 5-amino-3-([1-[(1R,2R)-4,4-difluoro-2-phenylcyclohexane-1-carbonyl]-4-hydroxypiperidin-4-yl]methyl)-6-[(1H-pyrrolo[3,2-b]pyridin-6-yl)oxy]pyrimidin-4(3H)-one] | 152 |
| N#Cc1ccc(Oc2ncn(CC3(O)CCN(C(=O)[C@@H]4CCC(F)(F)C[C@H]4c4ccccc4)CC3)c(=O)c2N)cc1Cl [Example 51, 4-{[5-amino-({1-[(1R,2R)-4,4difluoro-2-phenylcyclohexane-1-carbonyl]-4-hydroxypiperidin-4-yl}methyl)-6-oxo-1,6-dihydropyrimidin-4-yl]oxy}-2-chlorobenzonitrile] | 120 |
| NCc1ccc(Oc2ncn(CC3(O)CCN(C(=O)[C@@H]4CCC(F)(F)C[C@H]4c4ccccc4)CC3)c(=O)c2N)c(Cl)c1 [Example 69, 5-amino-6-[4-(aminomethyl)-2-chlorophenoxyl]-3-({1-[(1R,2R)-4,4-difluoro-2-phenylcyclohexane-1-carbonyl]-4-hydroxypiperidin04-yl}methyl)pyrimidin-4(3H)-one] | 119 |
| Nc1c(Oc2ccc(CNc3ccccc3)cc2)ncn(CC2(O)CCN(C(=O)[C@@H]3CCC(F)(F)C[C@H]3c3ccccc3)CC2)c1=O [Example 70, 5-amino-6-[4-(anilinomethyl)phenoxy]-3-({1-[(1R,2R)-4,4-difluoro-2-phenylcyclohexane-1-carbonyl]-4-hydroxypiperidin-4-yl}methyl)pyrimidin-4(3H)-one] | 134 |
| Nc1c(Oc2cc(F)cc(F)c2)ncn(CC2(O)CCN(C(=O)[C@@H]3CCC(F)(F)C[C@H]3c3ccccc3)CC2)c1=O [Example 8, 5-amino-6-(3,5-difluorophenoxy)-3-({1-[(1R,2R)-4,4-difluoro-2-phenylcyclohexane-1-carbonyl]-4-hydroxypiperidin-4-yl}methyl)pyrimidin-4(3H)-one] | 472 |
| COC(=O)c1cccc(Oc2ncn(CC3(O)CCN(C(=O)[C@@H]4CCC(F)(F)C[C@H]4c4ccccc4)CC3)c(=O)c2N)c1 [Example 27, methyl 3-{[5-amino-1-({1-[(1R,2R)-4,4-difluoro-2-phenylcyclohexane-1-carbonyl]-4-hydroxypiperidin-4-yl}methyl)-6-oxo-1,6-dihydropyrimidin-4-yl]oxy}benzoate] | 85 |
| Nc1c(Oc2ccc(CCC3CCCCN3)cc2)ncn(CC2(O)CCN(C(=O)[C@@H]3CCC(F)(F)C[C@H]3c3ccccc3)CC2)c1=O (stereo partly drawn) [Example 114, 5-amino-3-({1-[(1R,2R)-4,4-difluoro-2-phenylcyclohexane-1-carbonyl]-4-hydroxypiperidin-4-yl}methyl)-6-{4-[2-(piperidin-2-yl)ethyl]phenoxy}pyrimidin-4(3H)-one] | 48.7 |
| Nc1c(Oc2ccc(F)cc2)ncn(CC2(O)CCN(C(=O)[C@@H]3CC[C@](F)(C#Cc4ccccc4)C[C@H]3c3ccccc3)CC2)c1=O [Example 135, 5-amino-3-({1-[(1R,2R,4R)-4-fluoro-2-phenyl-4-(2-phenylethynyl)cyclohexanecarbonyl]-4-hydroxypiperidin-4-yl}methyl)-6-(4-fluorophenoxy)-3,4-dihydropyrimidin-4-one] | 36.4 |
| Nc1c(Oc2ccc(CCC3CCNCC3)cc2)ncn(CC2(O)CCN(C(=O)[C@@H]3CCC(F)(F)C[C@H]3c3ccccc3)CC2)c1=O [Example 112, 5-amino-3-([1-[(1R,2R)-4,4-difluoro-2-phenylcyclohexane-1-carbonyl]-4-hydroxypiperidin-4-yl]methyl)-6-[4-[2-(piperidin-4-yl)ethyl]phenoxy]pyrimidin-4(3H)-one] | 70.8 |
| N#Cc1ccc(Oc2ncn(CC3(O)CCN(C(=O)[C@@H]4CCC(F)(F)C[C@H]4c4ccccc4)CC3)c(=O)c2N)cc1F [Example 50, 4-{[5-amino-1-({1-[(1R,2R)-4,4-fluoro-2-phenylcyclohexane-1-carbonyl]-4-hydroxypiperidin-4-yl}methyl)-6-oxo-1,6-dihydropyrimidin-4-yl]oxy}-2-fluorobenzonitrile] | 116 |
